In ChEMBL document CHEMBL4699575, “Discovery of First-In-Class Potent and Selective Tropomyosin Receptor Kinase Degraders” (J Med Chem, 2020):
Calls of active or inactive are those of the source. The calls are words filed in the database; no cut-off is given here.

What was measured:
KM12 [1] = experiment: Effect on GSPT1 expression in human KM12 cells at 0.04 to 30 nM for 6 hrs by immunoblot analysis; assay type: functional, cell-based; settings: dose nM 0.04-30, time 6.0 hrs
KM12 [2] = experiment: Induction of CRBN-mediated ETV6-TRKC (unknown origin) fusion protein degradation expressed in human KM12 cells at 0.7 to 500 nM for 6 hrs by immunoblot analysis; assay type: cell-based; settings: dose nM 0.7-500, time 6.0 hrs
KM12 [3] = experiment: Antiproliferative activity against human KM12 cells assessed as reduction in cell viability measured after 3 days by Celltiter-Glo assay; assay type: functional, cell-based; settings: KM12, 72 h
[4] = biological target: High affinity nerve growth factor receptor (Homo sapiens, UniProt P04629); experiment: Binding affinity to human partial length TRKA expressed in mammalian expression system by kinomescan method
KM12 [5] = experiment: Induction of CRBN-mediated TMP3-TRKA (unknown origin) fusion protein degradation expressed in human KM12 cells at 10 nM for 6 hrs by immunoblot analysis relative to control; assay type: cell-based
[6] = Plasma concentration in ICR mouse at 10 mg/kg, ip measured at 8 hrs; assay type: ADME, organism-based
KM12 [7] = experiment: Induction of CRBN-mediated TMP3-TRKA (unknown origin) fusion protein degradation expressed in human KM12 cells at 10 nM for 4 hrs by immunoblot analysis; assay type: cell-based
KM12 [8] = experiment: Induction of CRBN-mediated TMP3-TRKA (unknown origin) fusion protein degradation expressed in human KM12 cells at 10 nM for 6 hrs pretreated with pomalidomide by immunoblot analysis; assay type: cell-based
KM12 [9] = experiment: Induction of CRBN-mediated TMP3-TRKA (unknown origin) fusion protein degradation expressed in human KM12 cells at 10 nM for 6 hrs pretreated with bortezomib by immunoblot analysis; assay type: cell-based
KM12 [10] = experiment: Induction of CRBN-mediated TMP3-TRKA (unknown origin) fusion protein degradation expressed in human KM12 cells at 10 nM for 0.3 hrs by immunoblot analysis; assay type: cell-based
[11] = biological target: BDNF/NT-3 growth factors receptor (Homo sapiens, UniProt Q16620); experiment: Binding affinity to human partial length TRKB expressed in mammalian expression system by kinomescan method
KM12 [12] = experiment: Induction of CRBN-mediated TMP3-TRKA (unknown origin) fusion protein degradation expressed in human KM12 cells at 1 nM for 6 hrs by immunoblot analysis relative to control; assay type: cell-based
KM12 [13] = experiment: Induction of CRBN-mediated TMP3-TRKA (unknown origin) fusion protein degradation expressed in human KM12 cells assessed as inhibition of PLC-gamma1 phosphorylation at 10 nM for 0.3 hrs by immunoblot analysis; assay type: cell-based
KM12 [14] = experiment: Induction of CRBN-mediated AGBL4-TRKB (unknown origin) fusion protein degradation expressed in human KM12 cells at 0.7 to 500 nM for 6 hrs by immunoblot analysis; assay type: cell-based; settings: dose nM 0.7-500, time 6.0 hrs
KM12 [15] = experiment: Induction of CRBN-mediated TMP3-TRKA (unknown origin) fusion protein degradation expressed in human KM12 cells at 30 nM for 6 hrs by immunoblot analysis; assay type: cell-based
[16] = biological target: T1, Protein cereblon/High affinity nerve growth factor receptor (Homo sapiens, UniProt P04629+Q96SW2); experiment: Induction of CRBN-mediated TRKA degradation in human HEL cells for 6 hrs by immunoblot analysis; assay type: cell-based
Target sequence in this assay (P04629 whole entry, the tested form may be a part): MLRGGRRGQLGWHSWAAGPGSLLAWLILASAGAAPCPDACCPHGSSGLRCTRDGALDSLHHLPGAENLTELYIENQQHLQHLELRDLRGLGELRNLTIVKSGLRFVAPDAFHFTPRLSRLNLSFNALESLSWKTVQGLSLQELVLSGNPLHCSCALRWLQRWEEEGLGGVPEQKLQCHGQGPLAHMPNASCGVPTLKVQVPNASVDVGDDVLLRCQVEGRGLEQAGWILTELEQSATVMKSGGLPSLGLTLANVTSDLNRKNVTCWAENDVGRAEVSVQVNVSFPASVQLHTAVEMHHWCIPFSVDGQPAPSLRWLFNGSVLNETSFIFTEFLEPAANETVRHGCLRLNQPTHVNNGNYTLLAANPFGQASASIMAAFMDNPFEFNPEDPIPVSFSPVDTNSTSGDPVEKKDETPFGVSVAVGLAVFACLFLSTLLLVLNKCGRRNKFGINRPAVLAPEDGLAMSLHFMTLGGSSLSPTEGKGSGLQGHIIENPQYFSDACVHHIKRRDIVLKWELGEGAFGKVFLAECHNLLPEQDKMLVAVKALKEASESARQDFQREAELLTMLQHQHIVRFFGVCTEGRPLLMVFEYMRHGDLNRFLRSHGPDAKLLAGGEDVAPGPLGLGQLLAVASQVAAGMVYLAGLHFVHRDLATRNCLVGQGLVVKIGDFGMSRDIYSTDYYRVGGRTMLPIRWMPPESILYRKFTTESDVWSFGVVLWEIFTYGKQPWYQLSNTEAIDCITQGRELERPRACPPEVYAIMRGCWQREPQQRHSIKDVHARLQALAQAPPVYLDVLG
Target sequence in this assay (Q96SW2 whole entry, the tested form may be a part): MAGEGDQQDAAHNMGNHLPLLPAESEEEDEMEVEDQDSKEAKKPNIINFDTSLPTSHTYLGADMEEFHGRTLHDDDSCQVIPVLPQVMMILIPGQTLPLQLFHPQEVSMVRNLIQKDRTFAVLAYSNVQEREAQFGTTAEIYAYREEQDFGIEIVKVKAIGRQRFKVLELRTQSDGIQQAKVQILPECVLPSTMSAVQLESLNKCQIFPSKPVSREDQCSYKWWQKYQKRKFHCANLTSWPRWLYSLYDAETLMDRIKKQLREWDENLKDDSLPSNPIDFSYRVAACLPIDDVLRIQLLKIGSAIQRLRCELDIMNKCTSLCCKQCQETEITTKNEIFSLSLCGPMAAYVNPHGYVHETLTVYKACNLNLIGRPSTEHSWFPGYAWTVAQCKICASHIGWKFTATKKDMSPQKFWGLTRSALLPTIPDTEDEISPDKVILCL

KM12 [17] = experiment: Induction of CRBN-mediated TMP3-TRKA (unknown origin) fusion protein degradation expressed in human KM12 cells assessed as inhibition of PLC-gamma1 phosphorylation at 10 nM for 4 hrs by immunoblot analysis; assay type: cell-based
[18] = Cmax in ICR mouse at 10 mg/kg, ip measured for 1 hr; assay type: ADME, organism-based; set-up: route intraperitoneal, dose 10 mg/kg, time 1 hrs; settings: in vivo
KM12 [19] = experiment: Induction of CRBN-mediated TMP3-TRKA (unknown origin) fusion protein degradation expressed in human KM12 cells at 10 nM for 6 hrs pretreated with MG-132 by immunoblot analysis; assay type: cell-based
KM12 [20] = experiment: Induction of CRBN-mediated TMP3-TRKA (unknown origin) fusion protein degradation expressed in human KM12 cells at 10 nM for 6 hrs pretreated with MLN4924 by immunoblot analysis; assay type: cell-based
KM12 [21] = experiment: Induction of CRBN-mediated TMP3-TRKA (unknown origin) fusion protein degradation expressed in human KM12 cells at 0.1 nM for 6 hrs by immunoblot analysis relative to control; assay type: cell-based
[22] = Binding affinity to human partial length TRKC expressed in mammalian expression system by kinomescan method
KM12 [23] = experiment: (§1) Induction of CRBN-mediated TMP3-TRKA (unknown origin) fusion protein degradation expressed in human KM12 cells assessed as inhibition of PLC-gamma1 phosphorylation for 6 hrs by immunoblot analysis; assay type: cell-based
[24] = as §1; assay type: cell-based; settings: KM12, 6 h
[25] = Induction of CRBN-mediated TMP3-TRKA (unknown origin) fusion protein degradation expressed in human KM12 cells for 6 hrs by immunoblot analysis; assay type: cell-based; settings: KM12, 6 h
KM12 [26] = experiment: Effect on GSPT1 expression in human KM12 cells at 30 nM for 6 hrs by immunoblot analysis; assay type: functional, cell-based
[27] = biological target: T1, Protein cereblon/High affinity nerve growth factor receptor; experiment: Induction of CRBN-mediated TRKA degradation in human HEL cells at 30 nM for 6 hrs by immunoblot analysis; assay type: cell-based
Target sequence in this assay (P04629 33-796 limits assumed): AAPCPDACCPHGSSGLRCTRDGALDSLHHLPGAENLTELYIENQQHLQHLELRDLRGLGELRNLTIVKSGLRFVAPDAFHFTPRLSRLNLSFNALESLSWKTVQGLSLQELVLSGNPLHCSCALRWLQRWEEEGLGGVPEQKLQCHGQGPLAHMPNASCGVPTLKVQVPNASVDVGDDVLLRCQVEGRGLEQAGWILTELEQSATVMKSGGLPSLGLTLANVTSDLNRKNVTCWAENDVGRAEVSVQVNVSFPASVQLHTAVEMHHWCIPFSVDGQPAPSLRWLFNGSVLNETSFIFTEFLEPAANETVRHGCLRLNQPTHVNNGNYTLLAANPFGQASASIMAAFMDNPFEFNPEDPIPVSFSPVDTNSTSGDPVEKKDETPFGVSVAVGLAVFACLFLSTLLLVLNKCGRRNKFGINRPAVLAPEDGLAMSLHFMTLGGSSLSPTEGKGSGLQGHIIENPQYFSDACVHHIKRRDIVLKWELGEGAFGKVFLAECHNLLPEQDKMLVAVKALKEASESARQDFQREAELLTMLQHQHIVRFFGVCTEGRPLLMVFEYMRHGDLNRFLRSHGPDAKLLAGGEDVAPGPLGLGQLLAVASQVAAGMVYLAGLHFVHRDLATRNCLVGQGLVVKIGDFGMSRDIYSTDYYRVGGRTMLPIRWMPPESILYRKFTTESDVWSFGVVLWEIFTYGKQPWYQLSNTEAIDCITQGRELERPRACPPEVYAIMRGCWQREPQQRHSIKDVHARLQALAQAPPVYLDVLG
Target sequence in this assay (Q96SW2 whole entry partner, the tested form may be a part): as the sequence (Q96SW2 whole entry, the tested form may be a part) above

[28] = biological target: T2, Tropomyosin alpha-3 chain/High affinity nerve growth factor receptor (Homo sapiens) (UniProt P04629+P06753); experiment: Induction of TMP3-TRKA (unknown origin) fusion protein degradation expressed in human KM12 cells transfected with siCRBN-2 at 0.1 to 10 nM for 6 hrs by immunoblot analysis; assay type: cell-based; settings: dose nM 0.1-10, time 6.0 hrs
[29] = biological target: T2, Tropomyosin alpha-3 chain/High affinity nerve growth factor receptor (Homo sapiens); experiment: Induction of TMP3-TRKA (unknown origin) fusion protein degradation expressed in human KM12 cells transfected with siCRBN-1 at 0.1 to 10 nM for 6 hrs by immunoblot analysis; assay type: cell-based; settings: dose nM 0.1-10, time 6.0 hrs
[30] = Half life in ICR mouse at 10 mg/kg, ip measured upto 8 hrs; assay type: ADME, organism-based; settings: in vivo

Sequence of High affinity nerve growth factor receptor (P04629 whole entry, the tested form may be a part): as the sequence (P04629 whole entry, the tested form may be a part) above
Sequence of BDNF/NT-3 growth factors receptor (Q16620 whole entry, the tested form may be a part): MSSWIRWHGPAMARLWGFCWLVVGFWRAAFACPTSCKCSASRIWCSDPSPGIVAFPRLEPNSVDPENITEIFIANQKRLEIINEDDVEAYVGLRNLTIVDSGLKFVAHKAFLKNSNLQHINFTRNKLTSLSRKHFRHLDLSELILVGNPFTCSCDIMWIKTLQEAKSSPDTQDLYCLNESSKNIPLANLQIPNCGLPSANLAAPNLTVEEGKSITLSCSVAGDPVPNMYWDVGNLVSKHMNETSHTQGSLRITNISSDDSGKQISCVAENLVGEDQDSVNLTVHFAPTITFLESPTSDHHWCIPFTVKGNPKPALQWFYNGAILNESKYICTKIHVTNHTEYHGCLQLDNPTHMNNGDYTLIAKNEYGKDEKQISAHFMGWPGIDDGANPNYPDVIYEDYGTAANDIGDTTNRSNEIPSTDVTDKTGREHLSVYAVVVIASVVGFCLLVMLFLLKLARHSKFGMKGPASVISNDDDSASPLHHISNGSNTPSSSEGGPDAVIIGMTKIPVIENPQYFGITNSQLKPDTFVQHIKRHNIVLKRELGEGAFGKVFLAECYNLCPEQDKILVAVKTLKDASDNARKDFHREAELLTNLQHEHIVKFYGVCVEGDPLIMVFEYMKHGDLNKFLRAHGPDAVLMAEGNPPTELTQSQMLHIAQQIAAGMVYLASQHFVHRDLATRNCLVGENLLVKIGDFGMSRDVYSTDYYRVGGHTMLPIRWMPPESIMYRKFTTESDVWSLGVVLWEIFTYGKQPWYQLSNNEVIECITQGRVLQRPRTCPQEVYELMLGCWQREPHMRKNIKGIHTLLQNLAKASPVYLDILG
T2 sequence (P04629 whole entry, looked up, the tested form may be a part): as the sequence (P04629 whole entry, the tested form may be a part) above
T2 sequence (P06753 whole entry, looked up, the tested form may be a part): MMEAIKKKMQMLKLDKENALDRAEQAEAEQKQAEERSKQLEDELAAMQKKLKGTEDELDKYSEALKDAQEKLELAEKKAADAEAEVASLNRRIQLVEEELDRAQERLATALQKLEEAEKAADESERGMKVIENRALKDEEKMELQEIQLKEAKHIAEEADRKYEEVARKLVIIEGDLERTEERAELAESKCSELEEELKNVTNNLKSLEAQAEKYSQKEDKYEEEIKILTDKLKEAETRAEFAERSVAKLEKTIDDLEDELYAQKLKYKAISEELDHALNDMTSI

## O=C1CCC(N2C(=O)c3cccc(NCCOCCC(=O)N4CCN(c5cccc(-c6cnc7ccc(N8CCC[C@@H]8c8cccc(F)c8)nn67)n5)CC4)c3C2=O)C(=O)N1 (some centres undefined)
KM12 [1]
  Activity: inactive
KM12 [2]
  Activity: Active
KM12 [3]
  IC50: 52 nM
[4]
  Kd: 1 nM
KM12 [5]
  Activity: 96%
[6]
  concentration at 8 h: 12.4 nM
KM12 [7]
  Activity: Active
KM12 [8]
  Activity: inactive
KM12 [9]
  Activity: inactive
KM12 [10]
  Activity: Active
[11]
  Kd: 28 nM
KM12 [12]
  Activity: 82%
KM12 [13]
  inhibition: Active
KM12 [14]
  Activity: Active
KM12 [15]
  Activity: Active
[16]
  DC50: 2.23 nM
KM12 [17]
  inhibition: Active
[18]
  Cmax: 1640 nM
KM12 [19]
  Activity: inactive
KM12 [20]
  Activity: inactive
KM12 [21]
  Activity: 46%
[22]
  Kd: 4.2 nM
KM12 [23]
  inhibition: Dose-dependent effect
[24]
  IC50: 30 nM
[25]
  DC50: 0.36 nM

## CN1C(=O)CCC(N2C(=O)c3cccc(NCCCCCC(=O)N4CCN(c5cccc(-c6cnc7ccc(N8CCC[C@@H]8c8cccc(F)c8)nn67)n5)CC4)c3C2=O)C1=O (some centres undefined)
KM12 [3]
  IC50: 2.9 nM
[4]
  Kd: 2.9 nM
[11]
  Kd: 187 nM
KM12 [26]
  Activity: inactive
[27]
  Activity: inactive
[22]
  Kd: 24.2 nM

## O=C1CCC(N2C(=O)c3cccc(NCCCCCCC(=O)N4CCN(c5cccc(-c6cnc7ccc(N8CCC[C@@H]8c8cccc(F)c8)nn67)n5)CC4)c3C2=O)C(=O)N1 (some centres undefined)
KM12 [5]
  Activity: 90%
KM12 [12]
  Activity: 23%
KM12 [21]
  Activity: 21%

## CN1C(=O)CCC(N2C(=O)c3cccc(NCCOCCC(=O)N4CCN(c5cccc(-c6cnc7ccc(N8CCC[C@@H]8c8cccc(F)c8)nn67)n5)CC4)c3C2=O)C1=O (some centres undefined)
KM12 [3]
  IC50: 28 nM
[4]
  Kd: 0.88 nM
[11]
  Kd: 59.8 nM
KM12 [26]
  Activity: inactive
[27]
  Activity: inactive
[22]
  Kd: 4.8 nM

## O=C1CCC(N2C(=O)c3cccc(NCCCCCCCC(=O)N4CCN(c5cccc(-c6cnc7ccc(N8CCC[C@@H]8c8cccc(F)c8)nn67)n5)CC4)c3C2=O)C(=O)N1 (some centres undefined)
KM12 [5]
  Activity: 83%
KM12 [12]
  Activity: 21%
KM12 [21]
  Activity: 20%

## O=C1CCC(N2C(=O)c3cccc(NCCOCCOCCC(=O)N4CCN(c5cccc(-c6cnc7ccc(N8CCC[C@@H]8c8cccc(F)c8)nn67)n5)CC4)c3C2=O)C(=O)N1 (some centres undefined)
KM12 [5]
  Activity: 95%
KM12 [12]
  Activity: 56%
KM12 [21]
  Activity: 30%

## O=C1CCC(N2C(=O)c3cccc(NCC(=O)N4CCN(c5cccc(-c6cnc7ccc(N8CCC[C@@H]8c8cccc(F)c8)nn67)n5)CC4)c3C2=O)C(=O)N1 (some centres undefined)
KM12 [5]
  Activity: 93%
KM12 [12]
  Activity: 45%
KM12 [21]
  Activity: 15%

## OC1CCN(c2cc(-c3cccc(-c4cnc5ccc(N6CCC[C@@H]6c6cccc(F)c6)nn45)n3)ccn2)CC1
KM12 [3]
  IC50: 16 nM
[4]
  Kd: 0.81 nM
KM12 [5]
  Activity: 52%
[11]
  Kd: 22.7 nM
KM12 [12]
  Activity: 16%
KM12 [21]
  Activity: 6%
[22]
  Kd: 5.4 nM

## O=C1CCC(N2C(=O)c3cccc(NCCC(=O)N4CCN(c5cccc(-c6cnc7ccc(N8CCC[C@@H]8c8cccc(F)c8)nn67)n5)CC4)c3C2=O)C(=O)N1 (some centres undefined)
KM12 [5]
  Activity: 65%
KM12 [12]
  Activity: 15%
KM12 [21]
  Activity: 9%

## O=C1CCC(N2C(=O)c3cccc(NCCCCCC(=O)N4CCN(c5cccc(-c6cnc7ccc(N8CCC[C@@H]8c8cccc(F)c8)nn67)n5)CC4)c3C2=O)C(=O)N1 (some centres undefined)
KM12 [1]
  Activity: inactive
KM12 [2]
  Activity: Active
KM12 [3]
  IC50: 5.4 nM
[4]
  Kd: 2.1 nM
KM12 [5]
  Activity: 96%
[6]
  concentration at 8 h: 14.8 nM
KM12 [7]
  Activity: Active
KM12 [8]
  Activity: inactive
KM12 [9]
  Activity: inactive
KM12 [10]
  Activity: Active
[11]
  Kd: 112 nM
KM12 [12]
  Activity: 65%
KM12 [13]
  inhibition: Active
KM12 [14]
  Activity: Active
KM12 [15]
  Activity: Active
[16]
  DC50: 1.26 nM
KM12 [17]
  inhibition: Active
[18]
  Cmax: 2050 nM
KM12 [19]
  Activity: inactive
[28]
  Activity: inactive
KM12 [20]
  Activity: inactive
KM12 [21]
  Activity: 18%
[29]
  Activity: inactive
[22]
  Kd: 18 nM
[30]
  half-life: 54 min
KM12 [23]
  inhibition: Dose-dependent effect
[24]
  IC50: 30 nM
[25]
  DC50: 0.48 nM

## O=C1CCC(N2C(=O)c3cccc(NCCCC(=O)N4CCN(c5cccc(-c6cnc7ccc(N8CCC[C@@H]8c8cccc(F)c8)nn67)n5)CC4)c3C2=O)C(=O)N1 (some centres undefined)
KM12 [5]
  Activity: 94%
KM12 [12]
  Activity: 63%
KM12 [21]
  Activity: 12%

## O=C1CCC(N2C(=O)c3cccc(NCCCCC(=O)N4CCN(c5cccc(-c6cnc7ccc(N8CCC[C@@H]8c8cccc(F)c8)nn67)n5)CC4)c3C2=O)C(=O)N1 (some centres undefined)
KM12 [5]
  Activity: 93%
KM12 [12]
  Activity: 69%
KM12 [21]
  Activity: 20%

## O=C1CCC(N2C(=O)c3cccc(NCCOCCOCCOCCC(=O)N4CCN(c5cccc(-c6cnc7ccc(N8CCC[C@@H]8c8cccc(F)c8)nn67)n5)CC4)c3C2=O)C(=O)N1 (some centres undefined)
KM12 [5]
  Activity: 86%
KM12 [12]
  Activity: 28%
KM12 [21]
  Activity: 22%

## O=C1CCC(N2C(=O)c3cccc(NCCOCCOCCOCCOCCC(=O)N4CCN(c5cccc(-c6cnc7ccc(N8CCC[C@@H]8c8cccc(F)c8)nn67)n5)CC4)c3C2=O)C(=O)N1 (some centres undefined)
KM12 [5]
  Activity: 91%
KM12 [12]
  Activity: 40%
KM12 [21]
  Activity: 22%
